Key:
[1] = molecular target: EP4 receptor (Homo sapiens, UniProt P35408); experiment: EP4 receptor binding assay (3H-PGE2 SPA); conditions: EP4 receptor membranes, 20 nM 3H-PGE2, pH 6.0, 2 hrs room temperature
Description: Compounds of the invention were tested in an EP4 receptor binding assay of the following protocol.

[2] = molecular target: EP2 receptor (Homo sapiens, UniProt P43116); experiment: EP2 receptor binding assay (3H-PGE2 SPA); conditions: EP2 receptor membranes, 20 nM 3H-PGE2, pH 6.0, 2 hrs room temperature
Description: Compounds of the invention were tested in an EP2 receptor binding assay of the following protocol. As referred to herein, the term a “standard EP2 receptor binding assay” designates the following protocol.

[3] = molecular target: T1, HEK293-EBNA cells transfected with pCEP4-hEP4 receptors (Homo sapiens, UniProt P35408); experiment: EP4 cAMP assay; assay type: cell-based; conditions: total cAMP, 1 hour 37° C.
T1 construct: expressed in transfected cells; host or cells: HEK293-EBNA
Description: (§1) Compounds of the invention were tested in a total cAMP assay as follows. HEK293-EBNA cells transfected with pCEP4-hEP4 receptors were seeded in 96 well opaque plate (Costar #3917) at 4×10^4 cells per well in 100 μl of culture medium (D-MEM/F12 supplemented with 10% FBS, […] L-glutamine, and 250 μg/ml of hygromycin; all from GibcoBRL) and incubated at 37° C. After overnight incubation, the medium was removed from each well and replaced with 45 μl of assay medium consisted of phenol red free D-MEM/F-12, 0.1% BSA (GibcoBRL) and 0.1 mM3-isobutyl-1-methyl-xanthine (Sigma). After 15 minutes of incubation at 37° C., 16-16-dimethyl PGE-2 or compounds of the invention at desired concentrations in 20 μl of assay medium were added to cells and further incubated at 37° C. for 1 hour. Total cAMP (intra- and extra-cellular) was measured by using a cAMP-screen ELISA System (Tropix, #CS1000).
In Table II, the tested compound is identified both by the corresponding synthetic Example number above as well as structure of the tested compound.

[4] = molecular target: T2, HEK293-EBNA cells transfected with pCEP4-hEP2 receptors (Homo sapiens, UniProt P43116); experiment: EP2 cAMP assay; assay type: cell-based; conditions: total cAMP, 1 hour 37° C.
T2 construct: expressed in transfected cells; host or cells: HEK293-EBNA
Description: as §1, with “pCEP4-hEP2” for “pCEP4-hEP4”, “compounds” for “compounds of the invention”

T2 sequence (P43116 whole entry): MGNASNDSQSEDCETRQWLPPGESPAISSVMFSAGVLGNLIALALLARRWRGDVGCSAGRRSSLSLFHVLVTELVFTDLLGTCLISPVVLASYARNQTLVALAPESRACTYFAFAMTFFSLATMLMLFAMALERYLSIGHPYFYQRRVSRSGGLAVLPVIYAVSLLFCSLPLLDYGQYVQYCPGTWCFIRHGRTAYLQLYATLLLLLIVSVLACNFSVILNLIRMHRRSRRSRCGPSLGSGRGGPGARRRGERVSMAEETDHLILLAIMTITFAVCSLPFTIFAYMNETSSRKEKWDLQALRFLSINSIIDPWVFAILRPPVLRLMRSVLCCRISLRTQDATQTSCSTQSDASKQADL
Sequence of EP2 receptor (P43116 whole entry): as above
T1 sequence (P35408 whole entry): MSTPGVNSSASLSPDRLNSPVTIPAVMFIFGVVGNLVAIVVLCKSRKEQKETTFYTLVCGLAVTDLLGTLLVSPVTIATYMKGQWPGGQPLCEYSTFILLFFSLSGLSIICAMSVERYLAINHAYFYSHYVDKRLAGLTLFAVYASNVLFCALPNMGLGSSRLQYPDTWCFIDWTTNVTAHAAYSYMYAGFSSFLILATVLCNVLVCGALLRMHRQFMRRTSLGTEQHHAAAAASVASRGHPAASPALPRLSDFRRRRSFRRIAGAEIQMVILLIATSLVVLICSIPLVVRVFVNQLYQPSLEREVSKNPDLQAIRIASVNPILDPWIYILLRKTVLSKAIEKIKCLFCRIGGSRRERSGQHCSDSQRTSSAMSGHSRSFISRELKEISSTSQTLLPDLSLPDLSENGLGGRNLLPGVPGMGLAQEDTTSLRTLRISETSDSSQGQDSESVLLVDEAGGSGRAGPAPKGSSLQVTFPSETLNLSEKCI
Sequence of EP4 receptor (P35408 whole entry): as above

Structure (SMILES) | Ki [1] [nM] | Ki [2] [µM] | EC50 [3] [nM] | EC50 [4] [nM]
CC(c1ccccc1)C(O)CCN1CCC(=O)N1CCc1ccc(C(=O)O)cc1 (stereo in doubt) [Example 27, 4-(2-{2-[(4S)-3-hydroxy-4-phenylpentyl]-5-oxopyrazolidin-1-yl}ethyl)benzoic acid] | 95 | 7.09 | – | –
CCCCCC(O)CCCN1CCC(=O)N1CCc1ccc(C(=O)O)cc1 (stereo in doubt) [Example 14, 4-{2-[2-((4S)-hydroxynonyl)-5-oxopyrazolidin-1-yl]ethyl}benzoic acid] | 566 | 1.86 | 10 | 566
O=C(O)c1ccc(CCN2C(=O)CCN2CCC(O)Cc2ccc3c(c2)OCO3)cc1 (centres unmarked) [Example 28, 4-(2-{2-[4-(1,3-benzodioxol-5-yl)-3-hydroxybutyl]-5-oxopyrazolidin-1-yl}ethyl)benzoic acid] | 376 | – | – | –
CCCCC(O)CCCN1CCC(=O)N1CCc1ccc(C(=O)O)cc1 (centres unmarked) [Example 6, 4-{2-[2-(4-hydroxyoctyl)-5-oxopyrazolidin-1-yl]ethyl}benzoic acid] | – | 5.66 | – | 1400
CC(c1ccccc1)C(O)CCN1CCC(=O)N1CCc1ccc(C(=O)O)cc1 (stereo in doubt) [Example 30, 4-(2-{2-[(4R)-3-hydroxy-4-phenylpentyl]-5-oxopyrazolidin-1-yl}ethyl)benzoic acid] | 93 | 5.13 | – | –
CCCCCC(O)CCCN1CCC(=O)N1CCc1ccc(C(=O)O)cc1 (centres unmarked) [Example 3, 4-{2-[2-(4-hydroxynonyl)-5-oxopyrazolidin-1-yl]ethyl}benzoic acid] | 2000 | 2.44 | – | 1300
CCCCCC(O)/C=C/CN1CCC(=O)N1CCc1ccc(C(=O)O)cc1 (centres unmarked) [Example 5, 4-(2-{2-[(2E)-4-hydroxynon-2-enyl]-5-oxopyrazolidin-1-yl}ethyl)benzoic acid] | – | 25.9 | – | 12500
O=C(O)c1ccc(CCN2C(=O)CCN2CCC(O)Cc2cccc(Cl)c2)cc1 (centres unmarked) [Example 29, 4-(2-{2-[4-(3-chlorophenyl)-3-hydroxybutyl]-5-oxopyrazolidin-1-yl}ethyl)benzoic acid] | 18 | 5.69 | – | –
CCCC(C)C(O)CCCN1CCC(=O)N1CCc1ccc(C(=O)O)cc1 (centres unmarked) [Example 8, 4-{2-[2-(4-hydroxy-5-methyloctyl)-5-oxopyrazolidin-1-yl]ethyl}benzoic acid] | – | 5.16 | – | 2100
CCCCCC(C)(O)CCCN1CCC(=O)N1CCc1ccc(C(=O)O)cc1 (centres unmarked) [Example 16, 4-{2-[2-(4-Hydroxy-4-methylnonyl)-5-oxopyrazolidin-1-yl]-ethyl}-benzoic acid] | – | 0.475 | – | 1600
O=C(O)c1ccc(CCN2C(=O)CCN2CCC(O)Cc2cccc(OC(F)(F)F)c2)cc1 (centres unmarked) [Example 24, 4-[2-(2-{3-hydroxy-4-[3-(trifluoromethoxy)phenyl]butyl}-5-oxopyrazolidin-1-yl)ethyl]benzoic acid] | 59 | 2.83 | – | –
O=C(O)c1ccc(CCN2C(=O)CCN2CCC(O)Cc2cccc(C(F)(F)F)c2)cc1 (centres unmarked) [Example 26, 4-[2-(2-{3-hydroxy-4-[3-(trifluoromethyl)phenyl]butyl}-5-oxopyrazolidin-1-yl)ethyl]benzoic acid] | – | 6.65 | – | 17600
CCCC(C)C(O)CCN1CCC(=O)N1CCc1ccc(C(=O)O)cc1 (centres unmarked) [Example 13, 4-{2-[2-(3-hydroxy-4-methylheptyl)-5-oxopyrazolidin-1-yl]ethyl}benzoic acid] | 6000 | 2.76 | – | 5000
O=C(O)c1ccc(CCN2C(=O)CCN2CCC(O)Cc2ccccc2)cc1 (centres unmarked) [Example 21, 4-{2-[2-(3-hydroxy-4-phenylbutyl)-5-oxopyrazolidin-1-yl]ethyl}benzoic acid] | 68 | 6.2 | – | –
CCCC(C)(O)CCCN1CCC(=O)N1CCc1ccc(C(=O)O)cc1 (centres unmarked) [Example 10, 4-{2-[2-(4-hydroxy-4-methylheptyl)-5-oxopyrazolidin-1-yl]ethyl}benzoic acid] | – | 28.9 | – | 5300
CCC1(C(O)CCCN2CCC(=O)N2CCc2ccc(C(=O)O)cc2)CCC1 (centres unmarked) [Example 19, 4-(2-{2-[4-(1-ethylcyclobutyl)-4-hydroxybutyl}-5-oxopyrazolidin-1-yl}ethyl)benzoic acid] | – | 0.75 | – | 393
O=C(O)c1ccc(CCN2C(=O)CCN2CCC(O)Cc2cccc(F)c2)cc1 (centres unmarked) [Example 25, 4-(2-{2-[4-(3-fluorophenyl)-3-hydroxybutyl]-5-oxopyrazolidin-1-yl}ethyl)benzoic acid] | 36 | 6.29 | – | –
CC(C)CC(O)CCCN1CCC(=O)N1CCc1ccc(C(=O)O)cc1 (centres unmarked) [Example 7, 4-{2-[2-(4-hydroxy-6-methylheptyl)-5-oxopyrazolidin-1-yl]ethyl}benzoic acid] | – | 28.6 | – | 9700
CCCCCC(O)CCN1CCC(=O)N1CCc1ccc(C(=O)O)cc1 (centres unmarked) [Example 1, 4-[2-(2-(3-hydroxyoctyl)-5-oxopyrazolidin-1-yl)ethyl]benzoic acid] | 250 | 2.2 | 5 | 595
CCCCCC(O)/C=C\CN1CCC(=O)N1CCc1ccc(C(=O)O)cc1 (centres unmarked) [Example 4, 4-(2-{2-[(2Z)-4-hydroxynon-2-enyl]-5-oxopyrazolidin-1-yl}ethyl)benzoic acid] | – | 17.2 | – | 2600
O=C(O)c1ccc(CCN2C(=O)CCN2CCCC(O)C2(CC3CC3)CCC2)cc1 (centres unmarked) [Example 18, 4-[2-(2-{4-[1-(cyclopropylmethyl)cyclobutyl]-4-hydroxybutyl}-5-oxopyrazolidin-1-yl)ethyl]benzoic acid] | – | 0.61 | – | 578
CCCCCC(O)C#CCN1CCC(=O)N1CCc1ccc(C(=O)O)cc1 (centres unmarked) [Example 2, 4-{2-[2-(4-hydroxynon-2-ynyl)-5-oxopyrazolidin-1-yl]ethyl}benzoic acid] | – | > 50 | – | > 50000
CC(C)CCC(C)(O)CCCN1CCC(=O)N1CCc1ccc(C(=O)O)cc1 (centres unmarked) [Example 11, 4-{2-[2-(4-hydroxy-4,7-dimethyloctyl)-5-oxopyrazolidin-1-yl]ethyl}benzoic acid] | – | 20.2 | – | 10000
CCCCCC(O)CCCN1CCC(=O)N1CCc1ccc(C(=O)O)cc1 (stereo in doubt) [Example 15, 4-{2-[2-((4R)-hydroxynonyl)-5-oxopyrazolidin-1-yl]ethyl}benzoic acid] | – | 3.26 | – | 1500
CCCCC(O)(CC)CCCN1CCC(=O)N1CCc1ccc(C(=O)O)cc1 (centres unmarked) [Example 9, 4-{2-[2-(4-ethyl-4-hydroxyoctyl)-5-oxopyrazolidin-1-yl]ethyl}benzoic acid] | – | 0.495 | – | 461
CC(C)CC(O)CCN1CCC(=O)N1CCc1ccc(C(=O)O)cc1 (centres unmarked) [Example 12, 4-{2-[2-(3-hydroxy-5-methylhexyl)-5-oxopyrazolidin-1-yl]ethyl}benzoic acid] | 2000 | 4.41 | 277 | 15000
